“And” between values parts separate entries of the source, which are not always exact repeats. Equal entries are not always repeated. Where two headings read alike, the source gives them in different places.
How the values were obtained:
[1] = target: T1, phosphorylated Tie-2 (aa 775-1122) (Homo sapiens, UniProt Q02763); test: TIE-2 spectrophotometric assay; format: biochemical; details: read-out: % Inhibition @ 1 µM Tie2-P
T1 construct: 4 to 12 nM phosphorylated Tie-2 (aa 775-1122); made in house; host or cells: insect cells
Method: This construct also carries a R774M mutation, which serves as the initiating methionine residue in translation.
The kinase-catalyzed production of ADP from ATP that accompanies phosphoryl transfer to the random copolymer poly(Glu4 Tyr) was coupled to the oxidation of NADH through the activities of pyruvate kinase (PK) and lactate dehydrogenase (LDH). NADH conversion to NAD* was monitored by the decrease in absorbance at 340 nm (ε = 6.22 cm^-1mM^-1) using a Beckman DU650 spectrophotometer. Typical reaction solutions contained 1 mM phosphoenolpyruvate, 0.24 mM NADH, 40 mM MgCl2, 5 mM DTT, 2.9 mg/mL poly(Glu4Tyr), 0.5 mM ATP, 15 units/mL PK, 15 units/mL LDH in 100 mM HEPES, pH 7.5. […]

human CHK1 (FL-CHK1) = target: T2, human CHK1 (FL-CHK1) (Homo sapiens, UniProt O14757); test: CHK1 coupled spectrophotometric assay; format: biochemical; details: Table 1; read-out: CHK -1* (Ki)
T2 construct: C-terminally His-tagged full-length human CHK1 (FL-CHK1) was expressed using the baculovirus/insect cell system; made in house; host or cells: baculovirus/insect cell system
T2 sequence (O14757 1-476): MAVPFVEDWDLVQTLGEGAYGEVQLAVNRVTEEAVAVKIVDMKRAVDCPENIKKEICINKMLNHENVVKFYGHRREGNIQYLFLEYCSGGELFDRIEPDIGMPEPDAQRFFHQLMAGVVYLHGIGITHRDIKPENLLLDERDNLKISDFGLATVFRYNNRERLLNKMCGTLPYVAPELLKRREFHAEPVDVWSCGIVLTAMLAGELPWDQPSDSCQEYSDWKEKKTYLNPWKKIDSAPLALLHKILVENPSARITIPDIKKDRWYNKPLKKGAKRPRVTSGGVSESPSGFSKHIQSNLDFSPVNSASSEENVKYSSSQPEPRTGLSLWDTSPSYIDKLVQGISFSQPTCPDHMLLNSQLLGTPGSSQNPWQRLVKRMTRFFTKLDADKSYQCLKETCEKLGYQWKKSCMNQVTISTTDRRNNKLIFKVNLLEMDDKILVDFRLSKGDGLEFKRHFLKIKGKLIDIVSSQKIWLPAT
Text: CHK1 Construct for Assay: C-terminally His-tagged full-length human CHK1 (FL-CHK1) was expressed using the baculovirus/insect cell system. […] The protein was purified by conventional chromatographic techniques.
The production of ADP from ATP that accompanies phosphoryl transfer to the synthetic substrate peptide Syntide-2 ([…]) was coupled to oxidation of NADH using phosphoenolpyruvate (PEP) through the actions of pyruvate kinase (PK) and lactic dehydrogenase (LDH). The oxidation of NADH was monitored by following the decrease of absorbance at 340 nm (∈340 = 6.22 cm^-1 mM^-1) using a HP8452 spectrophotometer. […] Assays were initiated with 10 nM of FL-CHK1. Ki values were determined by measuring initial enzyme activity in the presence of varying concentrations of test compounds. The data were analyzed using Enzyme Kinetic and Kaleidagraph software.

LCK tyrosine kinase = LCK tyrosine kinase (Homo sapiens, UniProt P06239, C224D/P223M); test: LCK spectrophotometric assay; format: biochemical; details: Table 1; compound concentration 1 µM; read-out: Lck-P* (% inhibition)
Method: The spectrophotometric assay was carried out as described above for VEGF-R2, except for the following changes in concentration: LCK = 60 nM, MgCl2 = 0 mM, poly(E4Y1) = 20 mM.

human FGF-R1 = human FGF-R1 (Homo sapiens, UniProt P11362, C488A/C584S/L457V); test: FGF-R spectrophotometric assay; format: biochemical; details: Table 1; compound concentration 1 µM; read-out: FGF-P* (% inhibition)
Method: The spectrophotometric assay was carried out as described above for VEGF-R2, except for the following changes in concentration: FGF-R = 50 nM, ATP = 2 mM, and poly(E4Y1) =15 mM.

[2] = test system: human umbilical vein endothelial cells (HUVEC); test: HUVEC proliferation assay (VEGF-stimulated, MTT); format: cell-based; details: Homo sapiens, HUVEC, Table 1
in vitro = in vitro ADME, human; details: 2 h
Method in brief: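 HLM diluted to 5 mg/mL in 100 mM KPO4, preincubated 10 min at 37 °C with NADPH-regenerating system. Compound (5 µM final) incubated at 37 °C in triplicate, sampled at 0 and 2 h into ice-cold acetonitrile, then LC-MS analysis.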

[3] = test system: VEGF dependent retinal neovascularization; test: Neonatal rat model of retinopathy of prematurity; format: in vivo; details: Model ROP
Method: A second model of VEGF dependent retinal neovascularization was employed to evaluate the activities of this series of compounds. […] The animals are exposed for 24 hours to a concentration of 50% oxygen followed by 24 hours at a concentration of 10% oxygen. This alternating cycle of hyperoxia followed by hypoxia is repeated 7 times after which the animals are removed to room air (P14). Compounds are administered via intravitreal injection upon removal to room air and the animals are sacrificed 6 days later (P20). The isolated retinas are then isolated, stained mounted and analyzed as detail above in the development model. The effectiveness was also graded as is described for the development model.

[4] = test system: VEGF dependent retinal vascular development; test: In vivo assay of retinal vascular development in neonatal rats; set-up: species or system rat; details: Model P8, intravitreal, 5 mg/ml, vehicle PEG/water 50:50
Method: The development of the retinal vascular in rats occurs from postnatal day 1 to postnatal day 14 (P1-P14). […] To assess the ability of specific compounds to inhibit the activity of VEGF in vivo, compounds were formulated in an appropriate vehicle, usually 50% polyethylene glycol, average molecular weight 400 daltons, and 50% solution of 300 mM sucrose in deionized water. […] Six days after the intravitreal injection, the animals were sacrificed and the retinas dissected free from the remaining ocular tissue. […] The individual retinas are then flat-mount onto glass slides and examined to determine the extent of vascularization. […] The amount of vessel regression was used to assess the relative potency of the compounds after in vivo administration.
For more quantitative analysis of regression, images of ADPase-stained, flat-mounted retinas were captured with a digital camera attached to a dissecting microscope. Retinal images were then imported into an image analysis software (Image Pro Plus 4.0, Media Cybernetics, Silver Spring, MD). The software was employed to determine the percentage of the area of the retina that contained stained vessels. This value for the experimental eye was compared to that measured for the vehicle injected, contralateral eye from the same animal. The reduction in the vascular area seen in the eye that received compound as compared to the vehicle-injected eye was then expressed as the "percent regression" for that sample.

in vivo = details: mouse, plasma, pH 2.3
[5] = Table 5, 1 µM, bold values spectrophotometric assay, non-bolded DELFIA assay (bold not visible here)
[6] = + albumin, read-out: HUVEC + albumin IC50
[7] = intravitreal, 1 mg/ml, vehicle PEG/water 70:30
[8] = intravitreal, 5 mg/ml, vehicle PEG/water 70:30
[9] = intravitreal, 10 mg/ml, vehicle PEG/water 70:30
[10] = mouse, in vivo, ip, 25 mg/kg, pH 2.3
[11] = mouse, in vivo, po, 50 mg/kg, pH 2.3

Sequence of human FGF-R1 (P11362 456-766 L457V/C488A/C584S): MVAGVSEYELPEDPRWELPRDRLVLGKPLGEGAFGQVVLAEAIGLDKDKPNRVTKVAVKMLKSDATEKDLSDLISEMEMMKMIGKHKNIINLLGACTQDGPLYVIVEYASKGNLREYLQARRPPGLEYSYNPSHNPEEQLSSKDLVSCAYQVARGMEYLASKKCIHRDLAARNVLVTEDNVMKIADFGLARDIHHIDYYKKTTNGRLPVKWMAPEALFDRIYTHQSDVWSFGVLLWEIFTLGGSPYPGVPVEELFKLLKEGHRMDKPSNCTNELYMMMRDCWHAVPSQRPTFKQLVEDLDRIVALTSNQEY
Sequence of LCK tyrosine kinase (P06239 223-509 P223M/C224D): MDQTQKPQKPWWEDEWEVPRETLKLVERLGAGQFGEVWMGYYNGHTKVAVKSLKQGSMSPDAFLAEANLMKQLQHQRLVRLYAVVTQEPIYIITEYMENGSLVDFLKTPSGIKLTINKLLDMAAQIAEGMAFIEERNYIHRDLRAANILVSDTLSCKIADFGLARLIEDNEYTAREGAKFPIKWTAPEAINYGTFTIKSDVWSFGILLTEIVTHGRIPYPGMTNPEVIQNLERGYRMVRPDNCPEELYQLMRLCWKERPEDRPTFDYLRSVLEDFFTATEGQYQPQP
T1 sequence (Q02763 775-1122): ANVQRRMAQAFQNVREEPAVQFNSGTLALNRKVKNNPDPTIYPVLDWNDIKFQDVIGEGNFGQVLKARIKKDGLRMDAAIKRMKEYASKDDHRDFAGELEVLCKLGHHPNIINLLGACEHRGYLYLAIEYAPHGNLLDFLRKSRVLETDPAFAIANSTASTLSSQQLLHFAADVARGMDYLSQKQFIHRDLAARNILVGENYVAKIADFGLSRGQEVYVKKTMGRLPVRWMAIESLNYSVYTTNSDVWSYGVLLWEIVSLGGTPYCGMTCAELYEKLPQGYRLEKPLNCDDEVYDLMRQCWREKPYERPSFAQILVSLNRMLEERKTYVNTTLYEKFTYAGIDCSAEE

Question: With `Brc1cccc(Oc2ccc3c(/C=C/c4ccccc4)n[nH]c3c2)c1` [8(d), 6-(3-Bromo-phenoxy)-3-styryl-1H-indaxole] as the compound, how does the inhibition at 1 µM [1] read?
Answer: 10%

Question: What about the Ki (human CHK1 (FL-CHK1)) of the same compound?
Answer: 0.082 µM

Question: Which inhibition at 1 µM (LCK tyrosine kinase) does the source give for `Cc1cccc(C(=O)Nc2cccc(N(C)c3ccc4c(/C=C/c5ccc6c(c5)OCO6)n[nH]c4c3)c2)c1` [16(b), N-(3-{[3-(2-Benzo[1,3]dioxol-5-yl-vinyl)-1H-indazol-6-yl]-methyl-amino}-phenyl)-3-methyl-benzamide] here?
Answer: 22%

Question: What about the inhibition at 1 µM (human FGF-R1) of the same compound?
Answer: 73%

Question: And the inhibition at 1 µM [1, 5]?
Answer: 52%

Question: And the IC50 [2, 6]?
Answer: 0.14 µM

Question: And the IC50 ([2]; read-out: HUVEC IC50)?
Answer: 0.0047 µM

Question: Which inhibition at 1 µM (LCK tyrosine kinase) does the source give for `CC(=O)c1cccc(C(=O)Nc2cccc(N(C)c3ccc4c(/C=C/c5ccc6c(c5)OCO6)n[nH]c4c3)c2)c1` [16(e), 3-Acetyl-N-(3-{[3-(2-benzo[1,3]dioxol-5-yl-vinyl)-1H-indazol-6-yl]-methyl-amino}-phenyl)-benzamide] here?
Answer: 8%

Question: And the inhibition at 1 µM (human FGF-R1)?
Answer: 59%

Question: What about the remaining at 2 h, 5 µM (in vitro; human liver microsomes, 5 µM test compound, 37 °C, read-out: % remain (HLM, 2 h)) of the same compound?
Answer: 40%

Question: What about the “% Inhibition” value [3, 7] of the same compound?
Answer: 16%

Question: What about the “% Inhibition” value [3, 8] of the same compound?
Answer: 36% and 37%

Question: What about the “Initial Evaluation” value [3, 8] of the same compound?
Answer: ++ (two pluses being judged to be approximately 25-75 % regression)

Question: And the “% Inhibition” value [3, 9]?
Answer: 54%

Question: What about the “Initial Evaluation” value [3, 9] of the same compound?
Answer: +++ (three pluses give to retinas with near total regression (approximately 75% or greater))

Question: And the IC50 [2, 6]?
Answer: 0.106 µM

Question: And the IC50 ([2]; read-out: HUVEC IC50)?
Answer: 0.0049 µM

Question: With `CC(=O)Nc1cccc(C(=O)c2ccc3c(/C=C/c4ccccc4)n[nH]c3c2)c1` [19(a), N-[3-(3-Styryl-1H-indazole-6-carbonyl)-phenyl]-acetamide] as the compound, how does the inhibition at 1 µM (LCK tyrosine kinase) read?
Answer: 16%

Question: What about the inhibition at 1 µM (human FGF-R1) of the same compound?
Answer: 92%

Question: What about the inhibition at 1 µM [1, 5] of the same compound?
Answer: 18%

Question: What about the IC50 ([2]; read-out: HUVEC IC50) of the same compound?
Answer: 0.044 µM

Question: Which inhibition at 1 µM (LCK tyrosine kinase) does the source give for `Cc1cnc(C(=O)Nc2cccc(C(=O)c3ccc4c(/C=C/c5ccccc5)n[nH]c4c3)c2)s1` [19(d), 5-Methyl-thiazole-2-carboxylic acid [3-(3-styryl-1H-indazole-6-carbonyl)-phenyl]-amide] here?
Answer: 33%

Question: What about the inhibition at 1 µM (human FGF-R1) of the same compound?
Answer: 39%

Question: And the inhibition at 1 µM [1, 5]?
Answer: 15%

Question: What about the IC50 [2, 6] of the same compound?
Answer: 0.034 µM

Question: What about the IC50 ([2]; read-out: HUVEC IC50) of the same compound?
Answer: 0.0068 µM

Question: With `O=C(c1cccc(NC(=O)c2cccc3[nH]ccc23)c1)c1ccc2c(/C=C/c3ccccn3)n[nH]c2c1` [41 (d)] as the compound, how does the AUCleast [10] read?
Answer: 10324 ng·h/mL

Question: And the T1/2 [10]?
Answer: 2.8 h

Question: What about the AUCleast [11] of the same compound?
Answer: 7072 ng·h/mL

Question: And the T1/2 [11]?
Answer: 1.5 h

Question: And the “% Inhibition” value [3, 7]?
Answer: 0%

Question: Which “% Inhibition” value [4] does the source give for `Cc1nc(/C=C/c2n[nH]c3cc(C(=O)c4cccc(NC(=O)c5ccccc5)c4)ccc23)cs1` [Example 42(c)] here?
Answer: 36%

Question: What does the source list for `O=C(Nc1cccc(C(=O)c2ccc3c(/C=N/n4cccc4)n[nH]c3c2)c1)c1ccccc1` [Example 45(b), 6-(3-Benzamidobenzoyl)-3-E-[N-(pyrrol-1-yl)iminomethyl]-1H-indazole]?
Answer: % remain (HLM, 2 h) (in vitro; human, microsomes, 5 µM): 97%; % Inhibition [3, 7]: 25%; % Inhibition [3, 9]: 60%; Initial Evaluation [3, 9]: ++ (two pluses being judged to be approximately 25-75 % regression)

Question: For `CCn1nc(C)cc1C(=O)Nc1cccc(C(=O)c2ccc3c(/C=C/c4ccccn4)n[nH]c3c2)c1.Cl` [Example 59(a), 6-[3-((1-Ethyl-3-methyl-1H-pyrazol-5-yl)carboxamido)benzoyl]-3-E-[2-(pyridin-2-yl)ethenyl]-1H-indazole hydrochloride], which T1/2 (mouse, in vivo, po, 25 mg/kg) is on record?
Answer: 1.6 h

Question: What about the “% Inhibition” value ([3]; 1 mg/ml, vehicle 0.5%CMC) of the same compound?
Answer: 19%

Question: What about the “% Inhibition” value ([3]; 10 mg/ml, vehicle C.5%CMC) of the same compound?
Answer: 41%

Question: What does the source list for `Cc1ccc2cc(NC(=O)c3ccccc3Sc3ccc4c(/C=C/c5ccccn5)n[nH]c4c3)ccc2n1` [Reference Example 33(b)]?
Answer: inhibition at 1 µM (human FGF-R1): 77%; T1/2 (IP, 25 mg/kg, vehicle PEG400:H2O pH 2.3 60:40): 3.0 h; T1/2 (PO, 50 mg/kg, vehicle PEG400:H2O pH 2.3 60:40): 3.0 h; AUC (in vivo; ip, 25 mg/kg): 11200 ng·h/mL; AUC (in vivo; po, 50 mg/kg): 3920 ng·h/mL; Initial Evaluation [3, 9]: ++ (two pluses being judged to be approximately 25-75 % regression)

Question: What does the source list for `Cc1ccc2cc(NC(=O)c3ccccc3Sc3ccc4c(/C=C/c5ccccc5)n[nH]c4c3)ccc2n1` [Reference Example 38(a), 6-[2-(2-Methylquinol-6-ylcarbamoyl)phenylsulfanyl]-3-E-(2-styryl)-1H-indazole]?
Answer: inhibition at 1 µM (LCK tyrosine kinase): 77%; inhibition at 1 µM (human FGF-R1): 74%; Initial Evaluation [3, 7]: + (one plus being detectable regression judged to be approximately 25 percent or less); Initial Evaluation [3, 9]: +++ (three pluses give to retinas with near total regression (approximately 75% or greater))

Question: With `O=C(c1cccc(NC(=O)c2cccc3[nH]ccc23)c1)c1ccc2c(/C=C/c3ccccn3)n[nH]c2c1` [Reference Example 41(d), 6-[3-(indol-4-ylcarboxamido)benzoyl]-3-E-[2-(pyridin-2-yl)ethenyl]-1H-indazole] as the compound, how does the “% Inhibition” value [3, 9] read?
Answer: 59%

Question: And the “Initial Evaluation” value [3, 9]?
Answer: +++ (three pluses give to retinas with near total regression (approximately 75% or greater))

Question: What about the IC50 [2, 6] of the same compound?
Answer: 0.0064 µM

Question: What about the IC50 ([2]; read-out: HUVEC IC50) of the same compound?
Answer: 0.0009 µM
